Test results published in US20100036088A1, “Selective poly-N-substituted glycine antibiotics” (priority 2008, published 2010).
Marks after values point to notes of the source that are not given here. Square brackets hold non-standard residues; d marks the D form. Peptide text beside a SMILES is read from it. Nspe = C[C@H](NCC(=O)O)c1ccccc1; Nphe = O=C(O)CNCc1ccccc1; Nlys = NCCCCNCC(=O)O

Experiments:
B. subtilis (ATCC 6633) = format: cell-based; conditions: ATCC 6633
Protocol: (§1) Whereas the preceding generation of molecules was designed to elucidate structure function relationships of specific molecular parameters (chirality, length, hydrophobicity, etc.), another generation compounds were designed explicitly to explore effects on selectivity. Antimicrobial activity of these compounds was tested against bacterial strains E. coli (ATTC 35218) and B. subtilis (ATTC 6633) in cation-adjusted MHB using the microdilution protocols previously described. The sequences, antimicrobial activities, hemolytic activities, and metabolic inhibitory concentrations against NIH 3T3 mouse fibroblast cells are summarized in Table 3 and the rationale of their design is described below.
(§2) The potencies of all compounds were determined against representative Gram-negative (E. coli ATCC 35218) and Gram-positive (B. subtilis ATCC 6633) biosafety level 1 (BSL1) organisms. In addition to hemolytic activity, the conventional measure of toxicity to mammalian cells, the effect of each ampetoid on NIH 3T3 mouse fibroblast cells was determined using the MTS tetrazolium salt-based calorimetric assay. While hemolysis measures the degree to which erythrocytes are lysed, the MTS assay indirectly quantifies the extent to which cellular metabolic activity is inhibited.
(§3) Screening antibacterial assays. MICs were determined in 96-well microtiter plates in accordance with CLSI M7-A6 protocols. Peptoid solutions with 50 μL total volume were prepared using 2:1 serial dilutions. 50 μL of bacteria inoculum (1×10^6 CFU/mL) prepared in cation-adjusted Mueller-Hinton broth (CAMHB) was added to test wells. Control wells contained 100 μL MHB (no growth) or 50 μL inoculums with 50 μL MHB with no peptoid. […] Reported values were reproducible over three experiments, each containing two parallel trials.

E. coli (ATCC 35218) = format: cell-based; conditions: ATCC 35218
Protocol: as §1, §2, §3

[1] = MTS assay, metabolic inhibition; format: cell-based, mouse
Protocol: as §2
MTS assays. NIH/3T3 cells (ATCC Corporation) cultured at 37° C. and 5% CO2 in complete Dulbecco's modified eagle's media (CDMEM) supplemented with 1% sodium pyruvate, 1% penicillin-streptomycin, 1.5 g/L NaHCO3, and 10% fetal bovine serum. Cells were seeded at a density of 5,000 cells per well for NIH/3T3 cells in 96-well plates (100 μl total volume). A peptoid solution plate (100 μL total volume per well) was prepared by serial dilution of aqueous peptoid stock solution in Hank's balanced salt solution (HBSS) media. The day-old cell monolayers were washed with HBSS and media was replaced with 100 μL HBSS. The contents of the peptoid solution plate were transferred onto corresponding wells of the cell monolayer plate, and 40 μL MTS reagent (Promega, Inc.) was added to each well. After incubating for 3 hours at 37° C., absorbance at 490 nm was determined. […] The average of six replicates is reported.

human erythrocytes = test: Hemolysis assay; format: cell-based
Protocol: Hemolysis assays. Erythrocytes were isolated from freshly drawn, heparanized human blood and resuspended to 20 vol % in PBS (pH 7.4). In a 96-well microtiter plate, 100 μL erythrocyte suspension was added to 100 μL peptoid solution in PBS (prepared by 1:2 serial dilutions), or 100 μL PBS in the case of negative controls. 100% hemolysis wells contained 100 μL blood cell suspension with 100 μL 0.2 vol % Triton X-100. The plate was incubated for 1 h at 37° C., then each well was diluted with 150 μL PBS. The plate was then centrifuged at 1200 g for 15 min, 100 μL of the supernatant from each well transferred to a fresh microtiter plate, and A350 measured.
Hemolysis assays. Erythrocytes were isolated from freshly drawn, heparanized human blood and resuspended in PBS (pH 7.4) to make a 20% volume suspension. Peptoid solutions were prepared by serial dilution (2:1) in a 96-well microtiter plate. For test wells, 100 μL of erythrocyte suspension was added to 100 μL of peptoid solution in PBS; PBS without peptoid was used as the negative control and 0.2 vol % Triton X-100 as the positive control that indicates 100% hemolysis. After 1 hour incubation at 37° C., each well was diluted with 150 μL PBS. Plates were then centrifuged at 1,200×g for 15 minutes to pellet the cells. 30 μL of the supernatant from each well were transferred to the corresponding well of a second 96-well plate that contains 70 μL PBS.

[2] = system: Candida albicans (SC5314); format: cell-based, C. albicans; conditions: SC5314, 48 h
Protocol: Additionally, in order to characterize possible antifungal activity, a library of alkylated compounds was tested against C. albicans, a representative fungal strain.
Antifungal Assays. MICs were determined using the broth microdilution assay given by CLSI M27-A2 protocols. Candida albicans (SC5314) was grown on Sabouraud dextrose agar for 24 hours at 30° C. Cells were suspended in 0.145 M saline, and the cell concentration was adjusted to 3×10^6 cells/mL. After adjusting the cell concentration, the suspension was diluted 1:1000 with RPMI 1640 (with L-glutamine and without sodium bicarbonate, Invitrogen) buffered with 0.145 M 3-(N-morpholino) propanesulfonic acid (MOPS). Two-fold serial dilutions of peptoids, peptides, and amphotericin B (Calbiochem) were prepared in RPMI 1640 and mixed with an equal volume of the cell suspension in 96-well plates. The final testing concentrations for the peptoids and peptides were 0.20 to 100 μM, and concentrations for amphotericin B were 0.031 to 16 μM. Growth controls and sterility controls were also included. Plates were incubated for 48 hours at 35° C., and growth of C. albicans was inspected visually to determine the MICs. The MIC for each compound was defined as the lowest concentration with no visible fungal growth. Experiments were performed in duplicate on two separate days.

E. coli = format: cell-based
Protocol: (§4) Antibacterial assays. MICs were determined according to CLSI M7-A6 protocols in a 96-well microtiter plate. In test wells, 50 μL bacterial inoculum (5×10^5 CFU/ml) in Mueller-Hinton broth (MHB) was added to 50 μL peptoid solution in MHB (prepared by 1:2 serial dilutions). Positive controls contained 50 μL inoculum and 50 μL MHB without peptoid. […] MIC values reported were reproducible between three independent experimental replicates, each consisting of two parallel trials. Broad-spectrum antimicrobial susceptibility testing was performed against BSL2 pathogens by Nova Biologicals, Inc. (Conroe, Tex.).
as §3

B. subtilis = format: cell-based
Protocol: as §4, §3

B. subtilis MIC (B. subtilis (ATCC 6633)) [µM]	E. coli MIC (E. coli (ATCC 35218)) [µM]	IC50 [1] [µM]	C. albicans MIC [2] [µM]	E. coli MIC (E. coli)	B. subtilis MIC (B. subtilis)	SMILES	HD10 (human erythrocytes)	HD50 (human erythrocytes)	HD10 (10% hemolytic dose) (human erythrocytes; red cells of human, 1 h)	HD50 (50% hemolytic dose) (human erythrocytes; red cells of human, 1 h)
0.78	50	16	–	–	–	C[C@H](NCC(=O)N(CCCCN)CC(=O)N(CC(=O)N(CCCCN)CC(=O)N(CCCCN)CC(=O)N(CC(=O)N(CC(=O)N(CCCCN)CC(=O)N(CC(=O)N(CCCCN)CC(=O)N(CCCCN)CC(=O)N(CC(=O)N(CC(=O)N(CCCCN)CC(=O)N(CC(N)=O)[C@@H](C)c1ccccc1)[C@@H](C)c1ccccc1)[C@@H](C)c1ccccc1)[C@@H](C)c1ccccc1)[C@@H](C)c1ccccc1)[C@@H](C)c1ccccc1)[C@@H](C)c1ccccc1)c1ccccc1 [1B15mer-Nlys4,10, H-(Nspe-Nlys-Nspe-Nlys-Nlys-Nspe)2-Nspe-Nlys-Nspe-NH2] (H-[Nspe][Nlys][Nspe][Nlys][Nlys][Nspe][Nspe][Nlys][Nspe][Nlys][Nlys][Nspe][Nspe][Nlys][Nspe]-NH2)	>200/>200 μM	>200/>200 μM	–	–
1.6	6.3	4.9	–	–	–	C[C@H](NCC(=O)N(CCCCN)CC(=O)N(CC(=O)N(CC(=O)N(CCCCN)CC(=O)N(CC(=O)N(CC(=O)N(CCCCN)CC(=O)N(CC(=O)N(CC(=O)N(CCCCN)CC(=O)N(CC(N)=O)[C@@H](C)c1ccccc1)[C@@H](C)c1ccccc1)[C@@H](C)c1ccccc1)[C@@H](C)c1ccccc1)[C@@H](C)c1ccccc1)[C@@H](C)c1ccccc1)[C@@H](C)c1ccccc1)c1ccccc1 [1B, H-(Nspe-Nlys-Nspe)4-NH2] (H-[Nspe][Nlys][Nspe][Nspe][Nlys][Nspe][Nspe][Nlys][Nspe][Nspe][Nlys][Nspe]-NH2)	–	> 100 µM	–	–
0.78	50	83	–	–	–	C[C@H](NCC(=O)N(CCCCN)CC(=O)N(CC(=O)N(CCCCN)CC(=O)N(CCCCN)CC(=O)N(CC(=O)N(CC(=O)N(CCCCN)CC(=O)N(CC(=O)N(CCCCN)CC(=O)N(CCCCN)CC(=O)N(CC(N)=O)[C@@H](C)c1ccccc1)[C@@H](C)c1ccccc1)[C@@H](C)c1ccccc1)[C@@H](C)c1ccccc1)[C@@H](C)c1ccccc1)c1ccccc1 [1B-Nlys4,10, H-(Nspe-Nlys-Nspe-Nlys-Nlys-Nspe)2-NH2] (H-[Nspe][Nlys][Nspe][Nlys][Nlys][Nspe][Nspe][Nlys][Nspe][Nlys][Nlys][Nspe]-NH2)	>200/>200 μM	>200/>200 μM	–	–
1.6	6.3	5.6	–	–	–	C[C@H](NCC(=O)N(CC(=O)N(CCCCN)CC(=O)N(CC(=O)N(CC(=O)N(CCCCN)CC(=O)N(CC(=O)N(CC(=O)N(CCCCN)CC(=O)N(CC(=O)N(CC(=O)N(CCCCN)CC(N)=O)[C@@H](C)c1ccccc1)[C@@H](C)c1ccccc1)[C@@H](C)c1ccccc1)[C@@H](C)c1ccccc1)[C@@H](C)c1ccccc1)[C@@H](C)c1ccccc1)[C@@H](C)c1ccccc1)c1ccccc1 [1C, H-(Nspe-Nspe-Nlys)4-NH2] (H-[Nspe][Nspe][Nlys][Nspe][Nspe][Nlys][Nspe][Nspe][Nlys][Nspe][Nspe][Nlys]-NH2)	25 µM	> 100 µM	–	–
0.78	6.3	11	–	–	–	C[C@@H](c1ccccc1)N(CC(=O)N(CC(=O)N(CCCCN)CC(=O)N(CC(=O)N(CC(=O)N(CCCCN)CC(=O)N(CC(=O)N(CC(=O)N(CCCCN)CC(=O)N(CC(=O)N(CC(N)=O)Cc1ccccc1)Cc1ccccc1)Cc1ccccc1)Cc1ccccc1)Cc1ccccc1)Cc1ccccc1)Cc1ccccc1)C(=O)CNCCCCN [1ach-Nspe2, H-(Nlys-Nspe-Npm)-(Nlys-Npm-Npm)3-NH2] (H-[Nlys][Nspe][Nphe][Nlys][Nphe][Nphe][Nlys][Nphe][Nphe][Nlys][Nphe][Nphe]-NH2)	160 µM	> 200 µM	–	–
–	–	–	>100	27* μM	27* μM	C[C@@H](c1ccccc1)N(CC(N)=O)C(=O)CN(C(=O)CN(CCCCN)C(=O)CN(C(=O)CN(C(=O)CNCCCCN)[C@@H](C)c1ccccc1)[C@@H](C)c1ccccc1)[C@@H](C)c1ccccc1 [16 mer, H-(Nlys-Nspe-Nspe)2-NH2] (H-[Nlys][Nspe][Nspe][Nlys][Nspe][Nspe]-NH2)	>220/>220 μM	>220/>220 μM	>220/>220 μM	>220/>220 μM
0.78	12.5	54	–	–	–	C[C@@H](c1ccccc1)N(CC(=O)N(CCCCN)CC(=O)N(CC(=O)N(CC(=O)N(CCCCN)CC(=O)N(CC(=O)N(CC(=O)N(CCCCN)CC(N)=O)[C@@H](C)c1ccccc1)[C@@H](C)c1ccccc1)[C@@H](C)c1ccccc1)[C@@H](C)c1ccccc1)C(=O)CN(C(=O)CNCCCCN)[C@@H](C)c1ccccc1 [110mer, H-(Nlys-Nspe-Nspe)3-Nlys-NH2] (H-[Nlys][Nspe][Nspe][Nlys][Nspe][Nspe][Nlys][Nspe][Nspe][Nlys]-NH2)	–	>200/>200 μM	–	–
0.78	3.1	5.6	–	–	–	C[C@@H](c1ccccc1)N(CC(=O)N(CCCCN)CC(=O)N(CC(=O)N(CC(=O)N(CCCCN)CC(=O)N(CC(=O)N(CC(=O)N(CCCCN)CC(=O)N(CC(=O)N(CC(=O)N(CCCCN)CC(N)=O)[C@@H](C)c1ccccc1)[C@@H](C)c1ccccc1)[C@@H](C)c1ccccc1)[C@@H](C)c1ccccc1)[C@@H](C)c1ccccc1)[C@@H](C)c1ccccc1)C(=O)CN(C(=O)CNCCCCN)[C@@H](C)c1ccccc1 [113mer, H-(Nlys-Nspe-Nspe)4-Nlys-NH2] (H-[Nlys][Nspe][Nspe][Nlys][Nspe][Nspe][Nlys][Nspe][Nspe][Nlys][Nspe][Nspe][Nlys]-NH2)	21 µM	> 100 µM	–	–
